{
  "source": "patent US20260191815A1",
  "about": "“THIOACRYLAMIDE DERIVATIVES FOR USE IN THE PREVENTION OR TREATMENT OF LIVER FIBROSIS” (CMR CUREDIAB METABOLIC RESEARCH GMBH, priority 2022, published 2026)",
  "key": {"[1]": {"tested_on": "fibronectin 1 (FN1) protein in LX2 cells", "assay": "Simple Western of FN1 protein in TGF-β1-stimulated LX2 hepatic stellate cells", "type": "cell-based, human", "settings": "for upregulation of FN1 in TGF-β1-treated LX2 cells: 10 μM, 30 min pretreatment, then 5 ng/ml TGF-β1 for 24 h; for protein abundance of FN1: sole treatment 10 μM for 24 h, LX2 cells, no TGF-β1", "procedure": "The human hepatic stellate cell line LX2 was purchased from Merck. The cells were used up to passage ten and incubated under sterile conditions at 37° C. and 5% CO2. The cells were cultivated in medium containing Dulbecco's Modified Eagle's Medium with 4.5 g/l glucose (ThermoFisher), 4 mmol/l glutamine (ThermoFisher), 2% fetal bovine serum (FBS) (Merck), 100 U/ml penicillin and 100 μg/ml streptomycin (Merck). After 2 days, LX2 cells were starved for FBS for 24 h and then pretreated with 10 μM HK1 (Taros Chemicals GmbH & Co. KG) or 10 μM HK3 (Taros Chemicals GmbH & Co. KG) for 30 min. Subsequently, 5 ng/ml recombinant TGF-β1 (R&D Systems, Minneapolis, MN, USA) was added to the hepatic stellate cell cultures for 24 h. LX2 cells were also incubated with 5 ng/ml TGF-β1 alone as positive control for the hepatic stellate cell activation. Recombinant TGF-β1 was dissolved in sterile 4 mmol/l HCl (Merck) containing 0.1% bovine serum albumin (Roth Karlsruhe, Germany) as carrier protein. HK1 and HK3 were dissolved in sterile dimethyl sulfoxide (DMSO) (Sigma-Aldrich, Munich, Germany). Stimulations with 10 μM HK1, 10 μM HK3 and the corresponding vehicles (HCl and DMSO with or without HCl) alone for 24 h were also included as treatments.\nFor the measurement of the pro-fibrotic proteins, Western Blotting was performed. Proteins were extracted from whole cell lysate of LX2 cells using RIPA lysis buffer containing 50 mmol/l Tris-HCl (pH 8.0), 150 mmol/l NaCl, 1% IGEPAL® CA-630, 0.5% sodium deoxycholate, 0.1% sodium dodecyl sulfate, 10% PhosSTOP Phosphatase Inhibitor Cocktail (Roche, Basel, Switzerland) and 10% cOmplete Mini Protease Inhibitor Cocktail (Roche). Lysates were centrifuged at 14850×g for 15 min at 4° C. Then, the total protein content of the lysates was determined using a bicinchoninic acid protein assay (ThermoFisher Scientific) in accordance with the manufacturer's instructions. The quantification of protein abundance was performed by Simple Western size-based assays using a 12-230 kDa and 66-440 kDa Separation Module (ProteinSimple, San Jose, CA, USA) according to the manufacturer's instructions. This fully automated Western blotting system is based on a capillary electrophoresis technology. The separation, immobilization to the capillary wall via a proprietary, photoactivated capture chemistry and immunodetection of the proteins using a horseradish peroxidase (HRP)-conjugated secondary antibody and chemiluminescent substrate take place directly in the capillary without gel separation and transfer steps to blotting paper. The chemiluminescence is measured at multiple exposure times and automatically quantified by the Compass for Simple Western software (version 4.1.0) (ProteinSimple). The chemiluminescent signal for immunodetected proteins, which can be represented as an electropherogram or virtual blot-like image, is automatically quantified by calculation of the area under the curve of the peak.\nThe software reports the molecular weight, the area (in an arbitrary unit and in percent) and signal to noise ratio for each protein detected. The primary antibodies for the recognition of endogenous levels of total alpha-1 type 1 collagen (COL1A1) protein (#72026) and total fibronectin 1 (FN1) protein (#26836) were purchased from Cell Signaling Technology (Danvers, MA, USA). The anti-rabbit HRP-linked secondary antibody was from ProteinSimple. […]\nDifferences were analysed by one-way ANOVA followed by the Tukey method as correction for multiple testing."}, "[2]": {"tested_on": "caspase 3/7 activity in primary human hepatocytes", "assay": "Caspase 3/7 activity provoked by palmitate in primary human hepatocytes", "type": "cell-based", "settings": "Hepatocyte, 10 μM pre-treatment + palmitate 200 μM, read-out: caspase 3/7 activity, % of control", "procedure": "The potential protective effect of HK1 and HK3 on caspase 3/7 activity in HepG2 cells and primary human hepatocytes was analysed.\nHepG2 cells were obtained from Merck (Darmstadt, Germany) (ECACC-certified), while primary human hepatocytes were obtained from Thermo Fisher Scientific (Waltham, MA, USA), and all were cultured according to the instructions of the respective manufacturers. During experiments, cells were cultured in serum-free medium. Unless otherwise stated, cells were treated with 200 μM bovine serum albumin (BSA)-conjugated palmitate (Cayman Chemicals, Ann Arbor, MI) alone or in combination with 10 μM HK1 (Taros Chemicals GmbH & Co. KG, Dortmund, Germany) and HK3 (Taros Chemicals GmbH & Co. KG, Dortmund, Germany) 30 min prior to palmitate exposure for 24 hours. The vehicle BSA was used according to the palmitate concentration and DMSO according to HK1 and HK3 concentration. 2 μM Staurosporine (Abcam, Cambridge, GB) was used as a positive and 100 μM Caspase 3/7 inhibitor (CI) (Cayman Chemicals) as a negative control.\nDifferences were analysed by one-way ANOVA."}},
  "data": [
    {"smiles": "Cc1cc(NC(=S)/C(C#N)=C(\\O)C2CC2)ccc1[N+](=O)[O-]", "note": "[HK3, 2-Cyano-3-cyclopropyl-3-hydroxy-N-(3-methyl-4-nitro-phenyl)-thioacrylamide]", "values": [
      {"measurement": "upregulation of FN1 in TGF-β1-treated LX2 cells", "setting": "[1]", "value": "completely suppressed"},
      {"measurement": "protein abundance of FN1", "setting": "[1]", "value": "no impact"},
      {"measurement": "activity at 10 µM", "setting": "[2]", "value": 41.7, "unit": "%"}
    ]},
    {"smiles": "Cc1cc(NC(=S)/C(C#N)=C(\\O)C2CC2)ccc1F", "note": "[HK1, 2-Cyano-3-cyclopropyl-N-(4-fluoro-3-methyl-phenyl)-3-hydroxy-thioacrylamide]", "values": [
      {"measurement": "upregulation of FN1 in TGF-β1-treated LX2 cells", "setting": "[1]", "value": "completely suppressed"},
      {"measurement": "protein abundance of FN1", "setting": "[1]", "value": "no impact"},
      {"measurement": "activity at 10 µM", "setting": "[2]", "value": 85.6, "unit": "%"}
    ]}
  ]
}
